{"source": "patent US6447748B1", "about": "“Benzamide compounds for cancer imaging and therapy” (Research Corporation Technologies, Inc., priority 1993, dated 2002)", "key": {"[1]": {"tested_on": "human A2058 melanoma xenografts", "assay": "Biodistribution in nude mice xenografted with human melanotic melanoma", "type": "in vivo, Balb/c nu/nu mice", "conditions": "for RATIO Tumor/Blood / RATIO Tumor/Muscle / Biodistribution Blood / Biodistribution Bone / Biodistribution Brain / Biodistribution Heart / Biodistribution Intestine / Biodistribution Kidney / Biodistribution Liver / Biodistribution Lung / Biodistribution Muscle / Biodistribution Spleen / Biodistribution Stomach / Biodistribution Thyroid / Biodistribution Tumor: nude mice, human melanotic melanoma, mean (std. dev.); for Biodistribution Blood / Biodistribution Bone / Biodistribution Brain / Biodistribution Heart / Biodistribution Intestine / Biodistribution Kidney / Biodistribution Liver / Biodistribution Lung / Biodistribution Muscle / Biodistribution Spleen / Biodistribution Stomach / Biodistribution Thyroid / Biodistribution Tumor: n = 6", "description": "A2058 tumor cells, derived from a brain metastasis of human malignant melanoma (Todaro et al. 1980 Proc. Natl. Acad. Sci. USA 77:5258) were obtained from the National Institutes of Health. […] Suspension of 5×10^6 cells (viability greater than 95%) in 0.2 mL of medium were inoculated subcutaneously in female Balb/c nu/nu mice. After about two weeks, solid tumors of about 1 cm in diameter appeared in approximately 85% of all inoculated mice. […] Balb/c nu/nu mice (17-22 g) were injected intravenously with 0.2 ml of a saline solution containing [^125I]PAB (5-6 μCi). […] The values obtained were normalized to a mouse weighing 20 g. The differences between [^125I]PAB and [^125I]DAB were examined by Student's unpaired t tests."}, "[2]": {"tested_on": "human squamous cell carcinoma xenografts", "assay": "Biodistribution in nude mice xenografted with human squamous cell carcinoma", "type": "in vivo, Balb/c nu/nu mice", "conditions": "for Biodistribution Blood / Biodistribution Bone / Biodistribution Brain / Biodistribution Heart / Biodistribution Intestine / Biodistribution Kidney / Biodistribution Liver / Biodistribution Lung / Biodistribution Spleen / Biodistribution Stomach / Biodistribution Thyroid / Biodistribution Tumor: nude mice, human squamous cell carcinoma, mean (std. dev.), n = 6", "description": "Non-small cell lung carcinoma cell lines NCI-157, NCI-838 and NCI-1299 were obtained from the National Cancer Institute. The NCI-157 cell line is a squamous carcinoma cell line, while NCI-838 is an adenocarcinoma cell line and NCI-1299 is a large cell lung carcinoma cell. […] Suspension of 5×10^6 cells (viability greater than 95%) in 0.2 mL of medium were inoculated subcutaneously in female Balb/c nu/nu mice. After about two weeks, solid tumors of about 1 cm in diameter appeared in approximately 85% of all inoculated mice. […] Balb/c nu/nu mice (17-22 g) were injected intravenously with 0.2 ml of a saline solution containing [^125I]PAB (5-6 μCi). […] The values obtained were normalized to a mouse weighing 20 g."}}}
{"smiles": "CCN(CC)CCNC(=O)c1ccc([125I])cc1", "note": "[[^125I]DAB, ^125I-N-(diethylaminoethyl)4-iodobenzamide, reference compound]", "values": [{"measurement": "RATIO Tumor/Blood", "setting": "[1]; 1 Hour", "value": "5.68 (2.75)"}, {"measurement": "RATIO Tumor/Muscle", "setting": "[1]; 1 Hour", "value": "5.33 (1.65)"}, {"measurement": "Biodistribution Blood", "setting": "[1]; 1 Hour", "value": "1.03 (.318) % ID/g"}, {"measurement": "Biodistribution Bone", "setting": "[1]; 1 Hour", "value": "1.04 (.476) % ID/g"}, {"measurement": "Biodistribution Brain", "setting": "[1]; 1 Hour", "value": "1.04 (.0855) % ID/g"}, {"measurement": "Biodistribution Heart", "setting": "[1]; 1 Hour", "value": "1.67 (.210) % ID/g"}, {"measurement": "Biodistribution Intestine", "setting": "[1]; 1 Hour", "value": "5.04 (1.47) % ID/g"}, {"measurement": "Biodistribution Kidney", "setting": "[1]; 1 Hour", "value": "4.63 (.905) % ID/g"}, {"measurement": "Biodistribution Liver", "setting": "[1]; 1 Hour", "value": "12.7 (1.69) % ID/g"}, {"measurement": "Biodistribution Lung", "setting": "[1]; 1 Hour", "value": "6.32 (1.55) % ID/g"}, {"measurement": "Biodistribution Muscle", "setting": "[1]; 1 Hour", "value": "0.988 (.125) % ID/g"}, {"measurement": "Biodistribution Spleen", "setting": "[1]; 1 Hour", "value": "3.46 (.206) % ID/g"}, {"measurement": "Biodistribution Stomach", "setting": "[1]; 1 Hour", "value": "3.84 (1.98) % ID/g"}, {"measurement": "Biodistribution Thyroid", "setting": "[1]; 1 Hour", "value": "5.68 (1.02) % ID/g"}, {"measurement": "Biodistribution Tumor", "setting": "[1]; 1 Hour", "value": "5.18 (1.31) % ID/g"}, {"measurement": "RATIO Tumor/Blood", "setting": "[1]; 6 Hour", "value": "28.1 (5.84)"}, {"measurement": "RATIO Tumor/Muscle", "setting": "[1]; 6 Hour", "value": "33.3 (14.0)"}, {"measurement": "Biodistribution Blood", "setting": "[1]; 6 Hour", "value": "1.03 (0.197) % ID/g"}, {"measurement": "Biodistribution Bone", "setting": "[1]; 6 Hour", "value": "0.100 (.0297) % ID/g"}, {"measurement": "Biodistribution Brain", "setting": "[1]; 6 Hour", "value": "0.132 (.0204) % ID/g"}, {"measurement": "Biodistribution Heart", "setting": "[1]; 6 Hour", "value": "0.150 (.0329) % ID/g"}, {"measurement": "Biodistribution Intestine", "setting": "[1]; 6 Hour", "value": "0.423 (.0963) % ID/g"}, {"measurement": "Biodistribution Kidney", "setting": "[1]; 6 Hour", "value": "0.435 (.0909) % ID/g"}, {"measurement": "Biodistribution Liver", "setting": "[1]; 6 Hour", "value": "3.74 (.427) % ID/g"}, {"measurement": "Biodistribution Lung", "setting": "[1]; 6 Hour", "value": "0.458 (.0993) % ID/g"}, {"measurement": "Biodistribution Muscle", "setting": "[1]; 6 Hour", "value": "0.0967 (.0356) % ID/g"}, {"measurement": "Biodistribution Spleen", "setting": "[1]; 6 Hour", "value": "0.260 (.0990) % ID/g"}, {"measurement": "Biodistribution Stomach", "setting": "[1]; 6 Hour", "value": "0.475 (.164) % ID/g"}, {"measurement": "Biodistribution Thyroid", "setting": "[1]; 6 Hour", "value": "0.400 (.124) % ID/g"}, {"measurement": "Biodistribution Tumor", "setting": "[1]; 6 Hour", "value": "2.83 (.388) % ID/g"}, {"measurement": "RATIO Tumor/Blood", "setting": "[1]; 24 Hour", "value": "15.5 (4.69)"}, {"measurement": "RATIO Tumor/Muscle", "setting": "[1]; 24 Hour", "value": "39.7 (9.61)"}, {"measurement": "Biodistribution Blood", "setting": "[1]; 24 Hour", "value": "0.0350 (0.0084) % ID/g"}, {"measurement": "Biodistribution Bone", "setting": "[1]; 24 Hour", "value": "0.0133 (.0052) % ID/g"}, {"measurement": "Biodistribution Brain", "setting": "[1]; 24 Hour", "value": "0.0033 (.0052) % ID/g"}, {"measurement": "Biodistribution Heart", "setting": "[1]; 24 Hour", "value": "0.0233 (.0175) % ID/g"}, {"measurement": "Biodistribution Intestine", "setting": "[1]; 24 Hour", "value": "0.123 (.0717) % ID/g"}, {"measurement": "Biodistribution Kidney", "setting": "[1]; 24 Hour", "value": "0.065 (.0197) % ID/g"}, {"measurement": "Biodistribution Liver", "setting": "[1]; 24 Hour", "value": "1.12 (.232) % ID/g"}, {"measurement": "Biodistribution Lung", "setting": "[1]; 24 Hour", "value": "0.0633 (.0273) % ID/g"}, {"measurement": "Biodistribution Muscle", "setting": "[1]; 24 Hour", "value": "0.0150 (.0084) % ID/g"}, {"measurement": "Biodistribution Spleen", "setting": "[1]; 24 Hour", "value": "0.0350 (.023) % ID/g"}, {"measurement": "Biodistribution Stomach", "setting": "[1]; 24 Hour", "value": "0.445 (.386) % ID/g"}, {"measurement": "Biodistribution Tumor", "setting": "[1]; 24 Hour", "value": "0.553 (.241) % ID/g"}, {"measurement": "amount in tumors relative to livers", "setting": "[1]; 24 hrs., melanoma xenograft", "value": "about half"}, {"measurement": "Biodistribution Blood", "setting": "[2]; 1 hr.", "value": "1.35 (0.42) % ID/g"}, {"measurement": "Biodistribution Bone", "setting": "[2]; 1 hr.", "value": "1.85 (0.22) % ID/g"}, {"measurement": "Biodistribution Brain", "setting": "[2]; 1 hr.", "value": "1.57 (0.05) % ID/g"}, {"measurement": "Biodistribution Heart", "setting": "[2]; 1 hr.", "value": "2.21 (0.16) % ID/g"}, {"measurement": "Biodistribution Intestine", "setting": "[2]; 1 hr.", "value": "5.64 (0.58) % ID/g"}, {"measurement": "Biodistribution Kidney", "setting": "[2]; 1 hr.", "value": "7.64 (0.35) % ID/g"}, {"measurement": "Biodistribution Liver", "setting": "[2]; 1 hr.", "value": "13.77 (0.72) % ID/g"}, {"measurement": "Biodistribution Lung", "setting": "[2]; 1 hr.", "value": "6.38 (0.89) % ID/g"}, {"measurement": "Biodistribution Spleen", "setting": "[2]; 1 hr.", "value": "3.58 (0.28) % ID/g"}, {"measurement": "Biodistribution Stomach", "setting": "[2]; 1 hr.", "value": "5.41 (0.53) % ID/g"}, {"measurement": "Biodistribution Thyroid", "setting": "[2]; 1 hr.", "value": "8.22 (0.72) % ID/g"}, {"measurement": "Biodistribution Tumor", "setting": "[2]; 1 hr.", "value": "5.13 (0.74) % ID/g"}, {"measurement": "Biodistribution Blood", "setting": "[2]; 6 hr.", "value": "0.301 (0.04) % ID/g"}, {"measurement": "Biodistribution Bone", "setting": "[2]; 6 hr.", "value": "0.21 (0.01) % ID/g"}, {"measurement": "Biodistribution Brain", "setting": "[2]; 6 hr.", "value": "0.23 (0.05) % ID/g"}, {"measurement": "Biodistribution Heart", "setting": "[2]; 6 hr.", "value": "0.38 (0.11) % ID/g"}, {"measurement": "Biodistribution Intestine", "setting": "[2]; 6 hr.", "value": "1.34 (0.27) % ID/g"}, {"measurement": "Biodistribution Kidney", "setting": "[2]; 6 hr.", "value": "1.07 (0.16) % ID/g"}, {"measurement": "Biodistribution Liver", "setting": "[2]; 6 hr.", "value": "5.84 (0.51) % ID/g"}, {"measurement": "Biodistribution Lung", "setting": "[2]; 6 hr.", "value": "1.07 (0.14) % ID/g"}, {"measurement": "Biodistribution Spleen", "setting": "[2]; 6 hr.", "value": "0.51 (0.08) % ID/g"}, {"measurement": "Biodistribution Stomach", "setting": "[2]; 6 hr.", "value": "2.7 (0.98) % ID/g"}, {"measurement": "Biodistribution Thyroid", "setting": "[2]; 6 hr.", "value": "1.48 (0.55) % ID/g"}, {"measurement": "Biodistribution Tumor", "setting": "[2]; 6 hr.", "value": "2.17 (0.09) % ID/g"}, {"measurement": "Biodistribution Blood", "setting": "[2]; 24 hr.", "value": "0.027 (0.00) % ID/g"}, {"measurement": "Biodistribution Brain", "setting": "[2]; 24 hr.", "value": "0.00 (0.00) % ID/g"}, {"measurement": "Biodistribution Heart", "setting": "[2]; 24 hr.", "value": "0.00 (0.00) % ID/g"}, {"measurement": "Biodistribution Intestine", "setting": "[2]; 24 hr.", "value": "0.05 (0.01) % ID/g"}, {"measurement": "Biodistribution Kidney", "setting": "[2]; 24 hr.", "value": "0.05 (0.00) % ID/g"}, {"measurement": "Biodistribution Liver", "setting": "[2]; 24 hr.", "value": "1.25 (0.10) % ID/g"}, {"measurement": "Biodistribution Lung", "setting": "[2]; 24 hr.", "value": "0.03 (0.00) % ID/g"}, {"measurement": "Biodistribution Spleen", "setting": "[2]; 24 hr.", "value": "0.01 (0.00) % ID/g"}, {"measurement": "Biodistribution Stomach", "setting": "[2]; 24 hr.", "value": "0.15 (0.02) % ID/g"}, {"measurement": "Biodistribution Thyroid", "setting": "[2]; 24 hr.", "value": "0.03 (0.01) % ID/g"}, {"measurement": "Biodistribution Tumor", "setting": "[2]; 24 hr.", "value": "0.18 (0.02) % ID/g"}, {"measurement": "amount in livers relative to tumors", "setting": "[2]; 24 hrs., squamous cell carcinoma xenograft", "value": "about six-fold"}]}
